Laboratory results as given in patent US20240285670A1, “THERAPEUTIC TREATMENT OF TUMORS BY BLOCKING THE HEME SYNTHESIS-EXPORT AXIS” (Università degli Studi di Torino, priority 2021, published 2024).

What was measured:
FLVCR1a = assay: qRT-PCR analysis of FLVCR1a expression in SHSY5Y cells; assay type: cell-based, human; details: 5 mM ALA for 15 hours vs non-treated
Method: (A) Heme content in SHSY5Y cells non-treated (NT) or treated with 5 mM ALA for 15 hours. Values are expressed as pmol heme/mg protein. Data represent mean±SEM, n=3; *=P<0.05. (B, C) qRT-PCR analysis of the expression of ALAS1 (B) and FLVCR1a (C) in SHSY5Y cells non-treated (NT) or treated with 5 mM ALA for 15 hours. Transcript abundance, normalized to beta-actin mRNA expression, is expressed as a fold increase over a calibrator sample. Data represent mean±SEM, n=4. For statistical analyses, an unpaired Student's t-test was used; *p<0.05. (D) qRT-PCR analysis of the expression of ALAS1 in SKCO1 cells untreated (NT) or treated with 5 mM ALA for 24 hours. Transcript abundance, normalized to beta-actin mRNA expression, is expressed as a fold increase over a calibrator sample. Data represent mean±SEM, n=5. […] Band intensities were measured by densitometry and normalized to beta-actin expression. […] (F) Proliferation of SHSY5Y cells assessed by crystal violet staining at different time points (starting from the day after plating, named “day 0”). Treatment with 5 mM ALA occurred at “day 0” and cells were monitored until the end of the experiment without medium refresh. […] (G) SKCO1 cells viability measured by the CellTiter-Fluor Cell Viability Assay (Promega, Madison, WI USA, catalog n°G6080) at different time points, starting from the day after plating (named “day 0”), as a readout of cell proliferation. […]

BTECs = assay: In vitro tubulogenesis assay on matrigel; assay type: cell-based, human; details: FLVCR1a-silenced vs scramble shRNA BTECs, 18 hours
From the text: (A) BTECs counting, as a readout of cell proliferation, at the indicated time points. […] Data represent mean±SEM, n=4. For statistical analyses, a two-way analysis of variance was used, followed by the Bonferroni correction for multiple group comparisons; ***p<0.001. (B) Quantification of BTECs migration rate in wound-healing assay. […] Data represent mean±SEM, n=32. For statistical analyses, a nonparametric unpaired Mann-Whitney test was used; ***p<0.001. (C) In vitro tubulogenesis assay on matrigel. […] The number of nodes counted within the neo-formed vascular networks is shown. Data represent mean±SEM; n=10. For statistical analyses, a nonparametric unpaired Mann-Whitney test was used; **p<0.01.
To assess in vitro formation of capillary-like structures, 3.5*10^4 BTECs were seeded in 24-well plates coated with BD Matrigel Matrix Growth Factor Reduced (BD Biosciences, Franklin Lakes, NJ USA, catalog n°356230). Cell organization on Matrigel was monitored using a Nikon Eclipse T-E microscope with a Nikon Plan 10×/0.10 NA objective. […] Images obtained 18 hours after the start of the experiment were analysed using Fiji open source software (Schindelin et al., 2012) (http://fiji.sc/ RRID:SCR_002285) in order to assess the number of nodes (intersections formed by at least three detectable cells) for each field. […]

Molecule	FLVCR1a transcript levels (FLVCR1a)	formation of microvascular network on matrigel (number of nodes) (BTECs)
Cl.NCC(=O)CCC(=O)O [5-ALA, 5-Aminolevulinic acid hydrochloride]	reduced	
FLVCR1a shRNA: shRNA specifically down-regulating FLVCR1a without targeting FLVCR1b; pLKO.1 lentiviral clone TRCN0000059599, antisense SEQ ID No.: 2 (antisense TTGCTAATGATGCTGTACTGG; sense CCAGTACAGCATCATTAGCAA)		impaired ability to form a complex microvascular network on matrigel
